{"source": "paper PMC5218480", "about": "(PLoS ONE, 2017)", "tested_on": "MV-4-11 cells", "assay": "Gene expression microarray analysis (Affymetrix PrimeView) and GSEA", "format": "cell-based, human", "design": "RFU PODN (11730768_x_at) / Fold change /veh PODN (11730768_x_at) / RFU LINC00158 (11744669_a_at) / Fold change /veh LINC00158 (11744669_a_at) / RFU DUSP10 (11751237_a_at) / Fold change /veh DUSP10 (11751237_a_at) / RFU ID3 (11757404_x_at) / Fold change /veh ID3 (11757404_x_at) / RFU PLEKHG5 (11737974_s_at) / Fold change /veh PLEKHG5 (11737974_s_at) / RFU LRRC4B (11730491_at) / Fold change /veh LRRC4B (11730491_at) / RFU GIMAP4 (11747438_a_at) / Fold change /veh GIMAP4 (11747438_a_at) / RFU KRT8 (11758183_x_at) / Fold change /veh KRT8 (11758183_x_at) / RFU CNN1 (11734310_a_at) / Fold change /veh CNN1 (11734310_a_at) / RFU VPS37D (11726825_at) / Fold change /veh VPS37D (11726825_at) / RFU C10orf10 (11716522_x_at) / Fold change /veh C10orf10 (11716522_x_at) / RFU KIR2DL2 /// KIR2DL4 /// KIR2DL5A /// KIR2DL5B /// KIR2DS1 /// KIR2DS2 /// KIR2DS3 /// KIR2DS4 /// KIR3DL3 /// KIR3DL3 /// KIR3DS1 (11738374_at) / Fold change /veh KIR2DL2 /// KIR2DL4 /// KIR2DL5A /// KIR2DL5B /// KIR2DS1 /// KIR2DS2 /// KIR2DS3 /// KIR2DS4 /// KIR3DL3 /// KIR3DL3 /// KIR3DS1 (11738374_at) / RFU C1QL1 (11718748_at) / Fold change /veh C1QL1 (11718748_at) / RFU TMPRSS4 (11747572_a_at) / Fold change /veh TMPRSS4 (11747572_a_at) / RFU HAMP (11756126_x_at) / Fold change /veh HAMP (11756126_x_at) / RFU RNFT2 (11725882_a_at) / Fold change /veh RNFT2 (11725882_a_at) / RFU NR4A2 (11747474_a_at) / Fold change /veh NR4A2 (11747474_a_at) / RFU ABCC12 (11746883_a_at) / Fold change /veh ABCC12 (11746883_a_at) / RFU TMEM136 (11760407_x_at) / Fold change /veh TMEM136 (11760407_x_at) / RFU CLDN22 /// WWC2 (11732394_at) / Fold change /veh CLDN22 /// WWC2 (11732394_at) / RFU HLA-DPB1 (11760878_x_at) / Fold change /veh HLA-DPB1 (11760878_x_at) / RFU SPINT1 (11716480_a_at) / Fold change /veh SPINT1 (11716480_a_at) / RFU GAP43 (11754022_s_at) / Fold change /veh GAP43 (11754022_s_at) / RFU A4GNT (11735810_at) / Fold change /veh A4GNT (11735810_at) / RFU PRB3 (11715151_x_at) / Fold change /veh PRB3 (11715151_x_at) / RFU TUBB4B (11761932_at) / Fold change /veh TUBB4B (11761932_at) / RFU CAPN14 (11732068_a_at) / Fold change /veh CAPN14 (11732068_a_at) / RFU TMCC2 (11721928_a_at) / Fold change /veh TMCC2 (11721928_a_at) / RFU IRGQ (11745062_a_at) / Fold change /veh IRGQ (11745062_a_at) / RFU FAM174B (11720279_a_at) / Fold change /veh FAM174B (11720279_a_at) / RFU TMPRSS4 (11748680_a_at) / Fold change /veh TMPRSS4 (11748680_a_at) / RFU FAM212B (11763350_a_at) / Fold change /veh FAM212B (11763350_a_at) / RFU PLEKHG5 (11743358_a_at) / Fold change /veh PLEKHG5 (11743358_a_at) / RFU ZSCAN30 (11745921_a_at) / Fold change /veh ZSCAN30 (11745921_a_at) / RFU CMKLR1 (11741424_a_at) / Fold change /veh CMKLR1 (11741424_a_at) / RFU LOC101060620 /// MAPK8IP1 (11723275_at) / Fold change /veh LOC101060620 /// MAPK8IP1 (11723275_at) / RFU SPTSSB (11747773_x_at) / Fold change /veh SPTSSB (11747773_x_at) / RFU PRSS12 (11739890_at) / Fold change /veh PRSS12 (11739890_at) / RFU BIN1 (11741810_x_at) / Fold change /veh BIN1 (11741810_x_at) / RFU WNT11 (11732464_a_at) / Fold change /veh WNT11 (11732464_a_at) / RFU C10orf10 (11716521_a_at) / Fold change /veh C10orf10 (11716521_a_at) / RFU C5orf56 (11738089_at) / Fold change /veh C5orf56 (11738089_at) / RFU CYB561 (11721691_x_at) / Fold change /veh CYB561 (11721691_x_at) / RFU ANKRD19P (11752326_a_at) / Fold change /veh ANKRD19P (11752326_a_at) / RFU OR2T12 /// OR2T33 /// OR2T8 (11738714_s_at) / Fold change /veh OR2T12 /// OR2T33 /// OR2T8 (11738714_s_at) / RFU VCAN (11748164_a_at) / Fold change /veh VCAN (11748164_a_at) / RFU JSRP1 (11732532_at) / Fold change /veh JSRP1 (11732532_at) / RFU KRTAP10-11 (11738290_x_at) / Fold change /veh KRTAP10-11 (11738290_x_at) / RFU MYO3A (11730013_a_at) / Fold change /veh MYO3A (11730013_a_at) / RFU EBF3 (11725865_a_at) / Fold change /veh EBF3 (11725865_a_at) / RFU CAMK2N1 (11719241_x_at) / Fold change /veh CAMK2N1 (11719241_x_at) / RFU C5orf56 (11738088_a_at) / Fold change /veh C5orf56 (11738088_a_at) / RFU OLFML3 (11715873_a_at) / Fold change /veh OLFML3 (11715873_a_at) / RFU LOC100653217 /// NTM (11731650_a_at) / Fold change /veh LOC100653217 /// NTM (11731650_a_at) / RFU MAPK11 (11762145_a_at) / Fold change /veh MAPK11 (11762145_a_at) / RFU FIZ1 (11724087_x_at) / Fold change /veh FIZ1 (11724087_x_at) / RFU OASL (11726364_x_at) / Fold change /veh OASL (11726364_x_at) / RFU SOX15 (11748057_x_at) / Fold change /veh SOX15 (11748057_x_at) / RFU CD79A (11719716_a_at) / Fold change /veh CD79A (11719716_a_at) / RFU HIST1H1D (11736915_at) / Fold change /veh HIST1H1D (11736915_at) / RFU CASKIN2 (11723855_a_at) / Fold change /veh CASKIN2 (11723855_a_at) / RFU LOC730098 (11760151_x_at) / Fold change /veh LOC730098 (11760151_x_at) / RFU OR4N2 (11742367_at) / Fold change /veh OR4N2 (11742367_at) / RFU PRRT2 (11749266_a_at) / Fold change /veh PRRT2 (11749266_a_at) / RFU SNX32 (11753110_a_at) / Fold change /veh SNX32 (11753110_a_at) / RFU CDHR5 (11726645_a_at) / Fold change /veh CDHR5 (11726645_a_at) / RFU RCAN1 (11760418_a_at) / Fold change /veh RCAN1 (11760418_a_at) / RFU FAM167A (11723789_a_at) / Fold change /veh FAM167A (11723789_a_at) / RFU FAM26E (11764081_at) / Fold change /veh FAM26E (11764081_at) / RFU ISYNA1 (11749810_s_at) / Fold change /veh ISYNA1 (11749810_s_at) / RFU ACY1 (11761880_at) / Fold change /veh ACY1 (11761880_at) / RFU 11764098_at / Fold change /veh 11764098_at / RFU SAMD14 (11745864_x_at) / Fold change /veh SAMD14 (11745864_x_at) / RFU NPB (11741838_a_at) / Fold change /veh NPB (11741838_a_at) / RFU TMPRSS6 (11731388_a_at) / Fold change /veh TMPRSS6 (11731388_a_at) / RFU KRTAP10-2 (11738614_at) / Fold change /veh KRTAP10-2 (11738614_at) / RFU ARHGAP8 /// PRR5-ARHGAP8 (11727945_x_at) / Fold change /veh ARHGAP8 /// PRR5-ARHGAP8 (11727945_x_at) / RFU KRTAP5-7 /// NADSYN1 (11734609_at) / Fold change /veh KRTAP5-7 /// NADSYN1 (11734609_at) / RFU RASL12 (11751679_a_at) / Fold change /veh RASL12 (11751679_a_at) / RFU CDKN2B (11736163_a_at) / Fold change /veh CDKN2B (11736163_a_at) / RFU PRF1 (11729649_at) / Fold change /veh PRF1 (11729649_at) / RFU, ZNF638 /// ZNF638-IT1 / Fold change vs veh, ZNF638 /// ZNF638-IT1 / RFU, PANK3 / Fold change vs veh, PANK3 / RFU, SH3YL1 / Fold change vs veh, SH3YL1 / RFU, ZEB2 / Fold change vs veh, ZEB2 / RFU, NRIP1 / Fold change vs veh, NRIP1 / RFU, PTTG1IP / Fold change vs veh, PTTG1IP / RFU, CAPN2 / Fold change vs veh, CAPN2 / RFU, MED14 / Fold change vs veh, MED14 / RFU, SNORA58 / Fold change vs veh, SNORA58 / RFU, C1orf63 / Fold change vs veh, C1orf63 / RFU, LRRFIP1 / Fold change vs veh, LRRFIP1 / RFU, NDUFAF7 / Fold change vs veh, NDUFAF7 / RFU, SLC12A2 / Fold change vs veh, SLC12A2 / RFU, IBTK / Fold change vs veh, IBTK / RFU, ESF1 / Fold change vs veh, ESF1 / Fold change vs veh, TMEM50B / RFU, TAOK1 / Fold change vs veh, TAOK1 / RFU, ACBD3 / Fold change vs veh, ACBD3 / RFU, TMA16 / Fold change vs veh, TMA16 / RFU, RWDD3 / Fold change vs veh, RWDD3 / RFU, BCAT1 / Fold change vs veh, BCAT1 / RFU, EDEM3 / Fold change vs veh, EDEM3 / RFU, TMEM33 / Fold change vs veh, TMEM33 / RFU, WDR75 / Fold change vs veh, WDR75 / RFU, AHCTF1 / Fold change vs veh, AHCTF1 / RFU, TFRC / Fold change vs veh, TFRC / RFU, ZDHHC17 / Fold change vs veh, ZDHHC17 / RFU, NOM1 / Fold change vs veh, NOM1 / RFU, ARL8B / Fold change vs veh, ARL8B / RFU, ZBTB11 / Fold change vs veh, ZBTB11 / RFU, TAMM41 / Fold change vs veh, TAMM41 / RFU, KIAA1704 /// LOC100996395 / Fold change vs veh, KIAA1704 /// LOC100996395 / RFU, ING1 / Fold change vs veh, ING1 / RFU, TRMT61B / Fold change vs veh, TRMT61B / RFU, FUBP3 / Fold change vs veh, FUBP3 / RFU, TP53 / Fold change vs veh, TP53 / RFU, TNKS2 / Fold change vs veh, TNKS2 / RFU, ZFP14 / Fold change vs veh, ZFP14 / RFU, ACTR2 / Fold change vs veh, ACTR2 / RFU, PPP3R1 / Fold change vs veh, PPP3R1 / RFU, PIK3R1 / Fold change vs veh, PIK3R1 / RFU, HNRNPA1 / Fold change vs veh, HNRNPA1 / RFU, RNF170 / Fold change vs veh, RNF170 / RFU, ZNF28 / Fold change vs veh, ZNF28 / RFU, RNGTT / Fold change vs veh, RNGTT / RFU, OGT / Fold change vs veh, OGT / RFU, BRD1 / Fold change vs veh, BRD1 / RFU, MARS / Fold change vs veh, MARS / RFU, ZNF655 / Fold change vs veh, ZNF655 / RFU, FAHD1 / Fold change vs veh, FAHD1 / RFU, BDP1 / Fold change vs veh, BDP1 / RFU, LRRCC1 / Fold change vs veh, LRRCC1 / RFU, ARID1A / Fold change vs veh, ARID1A / RFU, ZNF146 / Fold change vs veh, ZNF146 / RFU, ZNF330 / Fold change vs veh, ZNF330 / RFU, GPN3 / Fold change vs veh, GPN3 / RFU, C9orf123 / Fold change vs veh, C9orf123 / RFU, N4BP2L2 / Fold change vs veh, N4BP2L2 / RFU, ARFIP1 / Fold change vs veh, ARFIP1 / RFU, FAM179B / Fold change vs veh, FAM179B / RFU, BCL10 / Fold change vs veh, BCL10 / RFU, UHRF1BP1L / Fold change vs veh, UHRF1BP1L / RFU, BET1 / Fold change vs veh, BET1 / RFU, CNOT2 / Fold change vs veh, CNOT2 / RFU, ZNF268 / Fold change vs veh, ZNF268 / Fold change vs veh, ZNF507 / RFU, DGCR2 / Fold change vs veh, DGCR2 / RFU, WDSUB1 / Fold change vs veh, WDSUB1 / Fold change vs veh, HSP90B1 /// MIR3652 / RFU, ADSS / Fold change vs veh, ADSS / RFU, GK / Fold change vs veh, GK / RFU, ZNF148 / Fold change vs veh, ZNF148 / RFU, TAF9 / Fold change vs veh, TAF9 / RFU, SLC1A5 / Fold change vs veh, SLC1A5 / RFU, SLMO2 / Fold change vs veh, SLMO2 / RFU, ABCC4 / Fold change vs veh, ABCC4 / RFU, LOC101060439 /// RAP1B / Fold change vs veh, LOC101060439 /// RAP1B / RFU, RFX7 / Fold change vs veh, RFX7 / RFU, GTPBP10 / Fold change vs veh, GTPBP10 / RFU, CNEP1R1 / Fold change vs veh, CNEP1R1 / RFU, BIVM-ERCC5 /// ERCC5 / Fold change vs veh, BIVM-ERCC5 /// ERCC5 / RFU, ILF3 / Fold change vs veh, ILF3 / RFU 11762660_at / Fold change /veh 11762660_at / RFU VCAN (11757783_s_at) / Fold change /veh VCAN (11757783_s_at) / RFU DDX43 (11728927_at) / Fold change /veh DDX43 (11728927_at) / RFU KRT8 (11758188_x_at) / Fold change /veh KRT8 (11758188_x_at) / RFU NKD1 (11759106_at) / Fold change /veh NKD1 (11759106_at) / RFU SRD5A1 (11742802_a_at) / Fold change /veh SRD5A1 (11742802_a_at) / RFU TPSAB1 /// TPSB2 (11721975_s_at) / Fold change /veh TPSAB1 /// TPSB2 (11721975_s_at) / RFU GSTM3 (11746129_a_at) / Fold change /veh GSTM3 (11746129_a_at) / RFU IL23R (11737362_x_at) / Fold change /veh IL23R (11737362_x_at) / RFU TMEM51 (11727254_a_at) / Fold change /veh TMEM51 (11727254_a_at) / RFU PIWIL2 (11732686_x_at) / Fold change /veh PIWIL2 (11732686_x_at) / RFU ORM1 (11744905_x_at) / Fold change /veh ORM1 (11744905_x_at) / RFU CCDC152 (11743942_at) / Fold change /veh CCDC152 (11743942_at) / RFU ECM1 (11717891_a_at) / Fold change /veh ECM1 (11717891_a_at) / RFU IL23R (11748794_a_at) / Fold change /veh IL23R (11748794_a_at) / RFU TNFAIP8L3 (11732012_x_at) / Fold change /veh TNFAIP8L3 (11732012_x_at) / RFU MBOAT4 (11741988_at) / Fold change /veh MBOAT4 (11741988_at) / RFU 11764193_at / Fold change /veh 11764193_at / RFU TMEM53 (11763286_at) / Fold change /veh TMEM53 (11763286_at) / RFU MAGEB2 (11727129_at) / Fold change /veh MAGEB2 (11727129_at) / RFU TMEM200A (11744735_a_at) / Fold change /veh TMEM200A (11744735_a_at) / RFU CCDC152 (11751479_a_at) / Fold change /veh CCDC152 (11751479_a_at) / RFU FAM211A (11726209_a_at) / Fold change /veh FAM211A (11726209_a_at) / RFU RGS16 (11746705_a_at) / Fold change /veh RGS16 (11746705_a_at) / RFU VCAN (11755009_s_at) / Fold change /veh VCAN (11755009_s_at) / RFU RHOB (11743442_s_at) / Fold change /veh RHOB (11743442_s_at) / RFU RGS16 (11720943_a_at) / Fold change /veh RGS16 (11720943_a_at) / RFU RGS16 (11720944_at) / Fold change /veh RGS16 (11720944_at) / RFU, VPS4B / Fold change vs veh, VPS4B / RFU, CREB1 / Fold change vs veh, CREB1 / RFU, DNAJC13 / Fold change vs veh, DNAJC13 / RFU, GNAQ / Fold change vs veh, GNAQ / RFU, CDK5R1 / Fold change vs veh, CDK5R1 / RFU, ZRANB3 / Fold change vs veh, ZRANB3 / RFU, CUL4A / Fold change vs veh, CUL4A / RFU, CCNY / Fold change vs veh, CCNY / RFU, UFL1 / Fold change vs veh, UFL1 / RFU, COG3 / Fold change vs veh, COG3 / RFU, DIAPH2 / Fold change vs veh, DIAPH2 / RFU, SKA2 / Fold change vs veh, SKA2 / RFU, AFF3 / Fold change vs veh, AFF3 / RFU, LMF1 / Fold change vs veh, LMF1 / RFU, IPO11 / Fold change vs veh, IPO11 / RFU, DFFB / Fold change vs veh, DFFB / RFU, FOXP1 / Fold change vs veh, FOXP1 / RFU, CARD8 / Fold change vs veh, CARD8 / RFU, STRN3 / Fold change vs veh, STRN3 / RFU, ADK / Fold change vs veh, ADK / RFU, RASSF2 / Fold change vs veh, RASSF2 / RFU, WIPF1 / Fold change vs veh, WIPF1 / RFU, LARP1B / Fold change vs veh, LARP1B / RFU, RASA1 / Fold change vs veh, RASA1 / RFU, RB1 / Fold change vs veh, RB1 / RFU, PPFIA1 / Fold change vs veh, PPFIA1 / RFU, MAT2A / Fold change vs veh, MAT2A / RFU, CCT5 / Fold change vs veh, CCT5 / RFU, WDR92 / Fold change vs veh, WDR92 / RFU, CUX1 / Fold change vs veh, CUX1 / RFU, TTC7A / Fold change vs veh, TTC7A / RFU, TMEM135 / Fold change vs veh, TMEM135 / RFU, DEPTOR / Fold change vs veh, DEPTOR / RFU, CPM / Fold change vs veh, CPM / RFU, DNAJB6 / Fold change vs veh, DNAJB6 / RFU, CACNA2D3 / Fold change vs veh, CACNA2D3 / RFU, DTX4 / Fold change vs veh, DTX4 / RFU, TFCP2 / Fold change vs veh, TFCP2 / RFU, GMCL1 /// GMCL1P1 / Fold change vs veh, GMCL1 /// GMCL1P1 / RFU, AEBP2 / Fold change vs veh, AEBP2 / RFU, SNHG1 /// SNORD22 /// SNORD25 /// SNORD26 /// SNORD27 /// SNORD28 /// SNORD29 /// SNORD31 / Fold change vs veh, SNHG1 /// SNORD22 /// SNORD25 /// SNORD26 /// SNORD27 /// SNORD28 /// SNORD29 /// SNORD31 / Fold change (Aza/veh), C12orf56 (ProbeSet 11735607_a_at) / Fold change (ACY-1035/veh), C12orf56 (ProbeSet 11735607_a_at) / Fold change (Aza/veh), FGFR1OP (ProbeSet 11751329_s_at) / Fold change (ACY-1035/veh), FGFR1OP (ProbeSet 11751329_s_at) / Fold change (Aza/veh), VPS36 (ProbeSet 11739960_a_at) / Fold change (ACY-1035/veh), VPS36 (ProbeSet 11739960_a_at) / RFU SYPL1 (11715823_x_at) / Fold change /veh SYPL1 (11715823_x_at) / RFU IGFBP7 (11715501_s_at) / Fold change /veh IGFBP7 (11715501_s_at) / RFU REEP3 (11722064_at) / Fold change /veh REEP3 (11722064_at) / RFU IGLL1 (11728026_x_at) / Fold change /veh IGLL1 (11728026_x_at): dose or concentration left out as unconfirmed", "conditions": "ProbeSet 11758397_s_at; LIST B", "data": [{"molecule": "Nc1ncn([C@@H]2O[C@H](CO)[C@@H](O)[C@H]2O)c(=O)n1", "note": "[azacitidine]", "values": [{"measurement": "RFU, RNF170", "result": 159.42, "unit": "RFU"}]}]}
